# Laboratory results as given in publication PMC6704710, “Preclinical evaluation of 3D185, a novel potent inhibitor of FGFR1/2/3 and CSF-1R, in FGFR-dependent and macrophage-dominant cancer models” (Journal of Experimental & Clinical Cancer Research : CR, 2019).
# What was measured:
# Assay in all cases: Eurofins kinase panel
# Type in all cases: biochemical
# Settings in all cases: read-out: Inhibition rate (%)
# CLK4(h) = biological target: T1, CLK4(h) (Homo sapiens, UniProt Q9HAZ1)
# T1 construct: purchased Eurofins (KinaseProfiler)
# CDK2/cyclinA(h) = biological target: T2, CDK2/cyclinA(h) (Homo sapiens, UniProt P24941)
# T2 construct: purchased Eurofins (KinaseProfiler)
# CaMKIIδ(h) = biological target: T3, CaMKIIδ(h) (Homo sapiens, UniProt Q13557)
# T3 construct: purchased Eurofins (KinaseProfiler)
# TrkC(h) = biological target: T4, TrkC(h) (Homo sapiens, UniProt Q16288)
# T4 construct: purchased Eurofins (KinaseProfiler)
# PKCα(h) = biological target: T5, PKCα(h) (Homo sapiens, UniProt P17252)
# T5 construct: purchased Eurofins (KinaseProfiler)
# FAK(h) = biological target: T6, FAK(h) (Homo sapiens, UniProt Q05397)
# T6 construct: purchased Eurofins (KinaseProfiler)
# ARK5(h) = biological target: T7, ARK5(h) (Homo sapiens, UniProt O60285)
# T7 construct: purchased Eurofins (KinaseProfiler)
# T7 sequence (O60285 1-661): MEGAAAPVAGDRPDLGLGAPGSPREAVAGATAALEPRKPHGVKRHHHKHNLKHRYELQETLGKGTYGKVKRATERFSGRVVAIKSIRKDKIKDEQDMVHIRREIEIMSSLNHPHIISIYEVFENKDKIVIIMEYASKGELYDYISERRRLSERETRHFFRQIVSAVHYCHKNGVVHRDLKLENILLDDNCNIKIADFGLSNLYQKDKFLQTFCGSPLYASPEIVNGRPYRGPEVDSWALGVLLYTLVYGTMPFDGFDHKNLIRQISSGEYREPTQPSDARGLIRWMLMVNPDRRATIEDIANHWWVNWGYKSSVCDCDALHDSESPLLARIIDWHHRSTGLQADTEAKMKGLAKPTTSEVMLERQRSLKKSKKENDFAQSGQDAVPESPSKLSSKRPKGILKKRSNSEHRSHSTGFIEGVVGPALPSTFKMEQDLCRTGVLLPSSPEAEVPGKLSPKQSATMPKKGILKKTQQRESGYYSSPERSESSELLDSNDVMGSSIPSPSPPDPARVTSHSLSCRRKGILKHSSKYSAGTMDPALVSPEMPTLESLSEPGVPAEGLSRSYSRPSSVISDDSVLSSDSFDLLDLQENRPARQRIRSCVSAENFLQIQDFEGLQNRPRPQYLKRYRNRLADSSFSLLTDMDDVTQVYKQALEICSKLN
# MKK7β(h) = biological target: T8, MKK7β(h) (Homo sapiens, UniProt O14733)
# T8 construct: purchased Eurofins (KinaseProfiler)
# T8 sequence (O14733 1-419): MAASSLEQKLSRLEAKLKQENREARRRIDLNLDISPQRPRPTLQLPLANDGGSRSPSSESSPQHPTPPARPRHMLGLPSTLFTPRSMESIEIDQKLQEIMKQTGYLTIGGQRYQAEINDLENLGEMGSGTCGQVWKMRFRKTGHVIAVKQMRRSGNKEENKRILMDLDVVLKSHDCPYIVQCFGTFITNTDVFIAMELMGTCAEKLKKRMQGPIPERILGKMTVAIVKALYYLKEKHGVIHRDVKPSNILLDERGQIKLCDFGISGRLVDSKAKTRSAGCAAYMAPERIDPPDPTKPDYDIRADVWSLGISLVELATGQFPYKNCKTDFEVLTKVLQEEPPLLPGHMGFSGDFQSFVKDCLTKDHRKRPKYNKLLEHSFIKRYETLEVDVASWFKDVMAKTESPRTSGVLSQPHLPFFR
# GCN2(h) = biological target: T9, GCN2(h) (Homo sapiens, UniProt Q9P2K8)
# T9 construct: purchased Eurofins (KinaseProfiler)
# T9 sequence (Q9P2K8 whole entry): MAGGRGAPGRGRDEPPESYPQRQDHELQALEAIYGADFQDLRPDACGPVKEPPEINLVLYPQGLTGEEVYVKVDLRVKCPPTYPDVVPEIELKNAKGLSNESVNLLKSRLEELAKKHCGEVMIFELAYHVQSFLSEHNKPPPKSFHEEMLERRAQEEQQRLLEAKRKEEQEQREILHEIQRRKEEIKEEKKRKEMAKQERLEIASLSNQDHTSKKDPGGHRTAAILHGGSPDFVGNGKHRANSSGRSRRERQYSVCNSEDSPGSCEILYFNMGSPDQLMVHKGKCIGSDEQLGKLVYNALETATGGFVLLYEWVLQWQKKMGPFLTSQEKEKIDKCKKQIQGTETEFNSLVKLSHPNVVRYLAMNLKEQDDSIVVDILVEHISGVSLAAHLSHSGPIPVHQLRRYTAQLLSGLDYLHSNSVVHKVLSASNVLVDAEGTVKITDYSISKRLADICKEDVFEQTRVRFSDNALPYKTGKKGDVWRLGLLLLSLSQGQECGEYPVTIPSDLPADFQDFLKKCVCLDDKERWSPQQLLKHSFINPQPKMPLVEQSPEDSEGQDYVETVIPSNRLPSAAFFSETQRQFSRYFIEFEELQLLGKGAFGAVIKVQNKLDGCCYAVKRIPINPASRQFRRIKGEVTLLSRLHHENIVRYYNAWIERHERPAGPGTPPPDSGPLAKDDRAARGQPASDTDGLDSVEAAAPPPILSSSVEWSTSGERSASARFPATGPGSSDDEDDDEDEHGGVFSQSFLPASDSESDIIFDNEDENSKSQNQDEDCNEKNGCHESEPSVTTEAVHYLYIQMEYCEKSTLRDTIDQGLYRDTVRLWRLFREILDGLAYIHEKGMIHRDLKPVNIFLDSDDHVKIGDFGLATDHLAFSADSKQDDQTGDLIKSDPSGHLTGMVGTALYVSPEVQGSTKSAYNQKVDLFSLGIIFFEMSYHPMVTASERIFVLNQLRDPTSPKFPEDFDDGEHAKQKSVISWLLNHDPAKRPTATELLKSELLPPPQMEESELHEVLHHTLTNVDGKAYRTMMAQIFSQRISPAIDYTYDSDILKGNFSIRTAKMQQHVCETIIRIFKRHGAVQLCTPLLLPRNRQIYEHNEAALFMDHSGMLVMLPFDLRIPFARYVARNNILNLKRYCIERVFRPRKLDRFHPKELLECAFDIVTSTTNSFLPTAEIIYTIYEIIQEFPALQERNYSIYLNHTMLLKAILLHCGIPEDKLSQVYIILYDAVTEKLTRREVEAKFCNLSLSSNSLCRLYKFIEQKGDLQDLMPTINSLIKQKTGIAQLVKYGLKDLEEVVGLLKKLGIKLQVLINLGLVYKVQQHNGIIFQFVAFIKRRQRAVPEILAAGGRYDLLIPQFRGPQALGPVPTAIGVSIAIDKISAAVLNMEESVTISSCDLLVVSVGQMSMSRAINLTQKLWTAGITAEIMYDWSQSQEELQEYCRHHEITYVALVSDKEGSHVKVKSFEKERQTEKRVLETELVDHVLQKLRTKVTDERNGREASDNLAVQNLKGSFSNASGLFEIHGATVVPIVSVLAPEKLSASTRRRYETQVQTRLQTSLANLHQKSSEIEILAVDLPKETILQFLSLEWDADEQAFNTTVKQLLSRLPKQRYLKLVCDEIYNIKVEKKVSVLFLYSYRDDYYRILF
# T4 sequence (Q16288 32-839): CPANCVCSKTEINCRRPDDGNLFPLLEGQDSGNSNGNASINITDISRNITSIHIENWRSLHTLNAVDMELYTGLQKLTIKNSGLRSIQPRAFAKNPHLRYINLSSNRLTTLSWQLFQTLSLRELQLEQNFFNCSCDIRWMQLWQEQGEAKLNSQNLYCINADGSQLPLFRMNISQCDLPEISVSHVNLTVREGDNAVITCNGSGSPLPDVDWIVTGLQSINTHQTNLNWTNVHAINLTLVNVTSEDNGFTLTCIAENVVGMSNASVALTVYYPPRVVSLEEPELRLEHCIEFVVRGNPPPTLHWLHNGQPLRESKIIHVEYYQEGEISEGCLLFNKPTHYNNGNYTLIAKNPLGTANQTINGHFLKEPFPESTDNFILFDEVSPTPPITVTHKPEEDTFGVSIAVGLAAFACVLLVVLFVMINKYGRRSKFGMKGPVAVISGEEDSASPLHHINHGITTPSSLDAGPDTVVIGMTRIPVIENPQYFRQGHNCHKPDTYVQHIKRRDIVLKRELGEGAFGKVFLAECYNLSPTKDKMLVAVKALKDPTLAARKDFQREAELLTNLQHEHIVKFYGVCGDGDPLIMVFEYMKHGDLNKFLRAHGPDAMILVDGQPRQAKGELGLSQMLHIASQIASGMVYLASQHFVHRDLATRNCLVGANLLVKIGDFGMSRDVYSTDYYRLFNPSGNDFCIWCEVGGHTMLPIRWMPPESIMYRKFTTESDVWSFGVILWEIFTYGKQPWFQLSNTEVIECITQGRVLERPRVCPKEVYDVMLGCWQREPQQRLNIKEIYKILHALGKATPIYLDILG
# T6 sequence (Q05397 whole entry): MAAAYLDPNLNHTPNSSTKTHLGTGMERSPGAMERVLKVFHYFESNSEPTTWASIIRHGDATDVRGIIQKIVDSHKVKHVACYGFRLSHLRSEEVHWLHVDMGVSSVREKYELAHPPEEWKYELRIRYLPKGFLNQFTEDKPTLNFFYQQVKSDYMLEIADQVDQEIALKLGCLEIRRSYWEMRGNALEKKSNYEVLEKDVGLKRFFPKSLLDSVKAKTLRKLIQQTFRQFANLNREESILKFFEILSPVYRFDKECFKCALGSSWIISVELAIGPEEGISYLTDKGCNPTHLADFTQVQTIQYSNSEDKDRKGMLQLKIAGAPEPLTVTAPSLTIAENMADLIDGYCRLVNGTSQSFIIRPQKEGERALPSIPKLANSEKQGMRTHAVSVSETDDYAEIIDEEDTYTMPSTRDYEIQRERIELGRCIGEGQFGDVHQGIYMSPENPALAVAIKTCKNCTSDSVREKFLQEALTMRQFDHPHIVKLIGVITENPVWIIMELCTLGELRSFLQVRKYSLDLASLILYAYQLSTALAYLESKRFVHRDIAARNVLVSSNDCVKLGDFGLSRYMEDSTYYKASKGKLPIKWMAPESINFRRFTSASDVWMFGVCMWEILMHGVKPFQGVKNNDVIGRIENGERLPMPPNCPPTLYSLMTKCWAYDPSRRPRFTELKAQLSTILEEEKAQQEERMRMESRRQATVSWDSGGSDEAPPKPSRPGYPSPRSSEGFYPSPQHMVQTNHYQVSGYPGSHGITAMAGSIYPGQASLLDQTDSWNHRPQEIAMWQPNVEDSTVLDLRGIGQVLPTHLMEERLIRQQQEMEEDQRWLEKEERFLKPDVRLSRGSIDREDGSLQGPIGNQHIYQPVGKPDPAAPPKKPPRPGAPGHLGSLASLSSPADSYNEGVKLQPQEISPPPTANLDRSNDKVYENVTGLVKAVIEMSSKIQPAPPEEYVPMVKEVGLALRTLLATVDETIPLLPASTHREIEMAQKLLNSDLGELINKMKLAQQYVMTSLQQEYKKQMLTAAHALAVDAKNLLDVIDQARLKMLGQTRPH
# T3 sequence (Q13557 whole entry): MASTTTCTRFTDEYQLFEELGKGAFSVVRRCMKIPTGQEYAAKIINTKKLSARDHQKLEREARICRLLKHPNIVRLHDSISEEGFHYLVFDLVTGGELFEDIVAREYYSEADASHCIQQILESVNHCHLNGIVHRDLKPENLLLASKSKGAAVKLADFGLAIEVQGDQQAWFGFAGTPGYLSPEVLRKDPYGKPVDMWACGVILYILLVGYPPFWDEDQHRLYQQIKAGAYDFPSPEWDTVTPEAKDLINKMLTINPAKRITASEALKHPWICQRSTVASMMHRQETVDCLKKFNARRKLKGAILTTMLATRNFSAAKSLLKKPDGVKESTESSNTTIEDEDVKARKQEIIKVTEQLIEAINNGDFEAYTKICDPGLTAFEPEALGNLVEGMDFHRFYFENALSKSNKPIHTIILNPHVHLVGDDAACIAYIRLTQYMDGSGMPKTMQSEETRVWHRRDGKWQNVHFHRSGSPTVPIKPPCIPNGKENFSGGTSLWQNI
structure (smiles),measurement,setting,value
COc1cc(OC)c(Cl)c(-c2ccc3c(NC(=O)c4ccc(N5CCNC(C)(C)C5)cc4)n[nH]c3n2)c1Cl [3D185],inhibition at 0.01 µM,CLK4(h); 10 nM,5%
same,inhibition at 0.1 µM,CLK4(h); 100 nM,19%
same,inhibition at 1 µM,CLK4(h); 1000 nM,27%
same,inhibition at 0.01 µM,CDK2/cyclinA(h); 10 nM,2%
same,inhibition at 0.1 µM,CDK2/cyclinA(h); 100 nM,7%
same,inhibition at 1 µM,CDK2/cyclinA(h); 1000 nM,-3%
same,inhibition at 0.01 µM,CaMKIIδ(h); 10 nM,-1%
same,inhibition at 0.1 µM,CaMKIIδ(h); 100 nM,-3%
same,inhibition at 1 µM,CaMKIIδ(h); 1000 nM,-3%
same,inhibition at 0.01 µM,TrkC(h); 10 nM,36%
same,inhibition at 0.1 µM,TrkC(h); 100 nM,85%
same,inhibition at 1 µM,TrkC(h); 1000 nM,98%
same,inhibition at 0.01 µM,PKCα(h); 10 nM,-1%
same,inhibition at 0.1 µM,PKCα(h); 100 nM,1%
same,inhibition at 1 µM,PKCα(h); 1000 nM,3%
same,inhibition at 0.01 µM,FAK(h); 10 nM,17%
same,inhibition at 0.1 µM,FAK(h); 100 nM,29%
same,inhibition at 1 µM,FAK(h); 1000 nM,58%
same,inhibition at 0.01 µM,ARK5(h); 10 nM,11%
same,inhibition at 0.1 µM,ARK5(h); 100 nM,16%
same,inhibition at 1 µM,ARK5(h); 1000 nM,13%
same,inhibition at 0.01 µM,MKK7β(h); 10 nM,9%
same,inhibition at 0.1 µM,MKK7β(h); 100 nM,-2%
same,inhibition at 1 µM,MKK7β(h); 1000 nM,12%
same,inhibition at 0.01 µM,GCN2(h); 10 nM,3%
same,inhibition at 0.1 µM,GCN2(h); 100 nM,-12%
same,inhibition at 1 µM,GCN2(h); 1000 nM,-49%
